pEC50: −log10 of the molar value. Where “and” joins values, the source holds several entries; their conditions need not be identical. Equal values may be shown once.
What was measured:
[1] = tested on: non-growing S. aureus DSM2569; experiment: Dose-dependent killing analysis (CFU spot-plating) of stationary-phase S. aureus; format: cell-based, Staphylococcus aureus; conditions: for Δlog10(CFU/ml): S. aureus, average killing vs before treatment (9,097)
Procedure: To determine the spectrum of activity of the compounds that were effective against non-growing UPEC, we further assessed their efficacy against the well-characterized Gram-negative and Gram-positive reference strains P. aeruginosa DSM1117 and S. aureus DSM2569, respectively. The cultures were grown and treated for 24 h in 1:4 CA-MHB (pH 7.4). […].
(§1) For survival analysis, bacteria were cultivated as described for the dose–response dilution-regrowth assay. Assays with UPEC were conducted at the CBCS screening facility using 96-well plates with a 200 μl sample volume, and compounds were dispensed using the Echo® (Labcyte) system. P. aeruginosa and S. aureus samples were treated according to the protocol used for the dilution-regrowth experiments. Treated samples were serially diluted 10-fold in PBS, and 10 μl drops were spot-plated onto rectangular LB agar plates using either a Beckman NXP robot (for UPEC) or an Integra VIAFLO96 electronic pipette (for P. aeruginosa and S. aureus). The LB agar plates were incubated overnight at 37 °C and scanned. Colonies were counted at the spots of the lowest dilution where individual colonies could be accurately distinguished. Each colony was manually marked on a separate image layer using the GNU Image Manipulation Program, and counted using NIST’s Integrated Colony Enumerator (NICE 1.4) software. The experiments were performed in three biological replicates.

non-growing UPEC CFT073 = experiment: Dose-dependent killing analysis (CFU spot-plating) of stationary-phase UPEC; format: cell-based, Escherichia coli
Procedure: To differentiate between these scenarios, we used CFU counting by agar plating to assess the bactericidal effect on non-growing bacteria. […] Conversely, if no significant reduction in CFU is observed, the regrowth delay is due to PAE without killing. […] Fluoroquinolones are known to cause PAE after treatment of growing bacterial cultures.
as §1

[2] = tested on: non-growing S. aureus DSM2569; experiment: Dilution-regrowth assay (OD600, start-growth-time) on stationary-phase S. aureus; format: cell-based, Staphylococcus aureus; conditions: S. aureus; for OD600 at 8hr, Mean: after dilution into drug-free medium
Procedure: The cultures were grown and treated for 24 h in 1:4 CA-MHB (pH 7.4).
This approach allowed us to capture the time when cultures reached a threshold optical density (start-growth-time, SGT[15]).
The cultures were incubated for 24 h in non-baffled Erlenmeyer flasks at 37 °C with shaking at 200 rpm.
For P. aeruginosa and S. aureus, dose–response analysis was conducted in 96-well plates with a 200 μl assay volume, following the procedure used for screening assay validation experiments. […] Stock solutions were prepared and stored according to the manufacturers’ instructions, then diluted in 10% DMSO before use. Cultures were incubated for 24 h in 1:4 diluted CA-MHB medium under the same conditions used for UPEC cultivation. In preliminary experiments, each compound was tested at a concentration of 20 μM in the dilution-regrowth assay with 4 technical replicates. Regrowth was monitored using a microplate reader at 37 °C with continuous shaking, and OD600 was recorded every 20 min. The time at which OD600 exceeded the threshold of 0.12 was recorded as the Start_Growth-Time.
Statistical significance of the drug effects was assessed using a one-way ANOVA followed by Dunnett’s test, comparing each treatment to the drug-free control. Statistical significance of the differences in chemical characteristics between the hit compounds and the Prestwick library was assessed using a Mann–Whitney test. Statistical significance was set at P ≤ 0.05. A five-parameter logistic equation was used for asymmetric sigmoidal curve fitting and for EC50 and IC50 determination. The Venn diagram in Fig. 1F was prepared using BioVenn web application. Characteristics of the chemical and physical properties of Prestwick library compounds were obtained from Supplementary Table S1 from reference. Characteristics of the hit compounds not included in the Prestwick library were retrieved from the PubChem database.

Substance: Bleomycin
- Log10(CFU/ml), Replicate #1 [1]: 6.114 Log10(CFU/ml) and 7.898 Log10(CFU/ml) and 8.934 Log10(CFU/ml) and 8.881 Log10(CFU/ml)
- Log10(CFU/ml), Replicate #2 [1]: 6.845 Log10(CFU/ml) and 8.447 Log10(CFU/ml) and 8.959 Log10(CFU/ml) and 9.255 Log10(CFU/ml)
- Log10(CFU/ml), Replicate #3 [1]: 6.863 Log10(CFU/ml) and 8.431 Log10(CFU/ml) and 8.778 Log10(CFU/ml) and 8.944 Log10(CFU/ml)
- Δlog10(CFU/ml) ([1]; 0.1 μM): 0.070 log10(CFU/ml)
- Δlog10(CFU/ml) ([1]; 0.5 μM): 0.206 log10(CFU/ml)
- Δlog10(CFU/ml) ([1]; 2.5 μM): 0.838 log10(CFU/ml)
- Δlog10(CFU/ml) ([1]; 10 μM): 2.490 log10(CFU/ml)
- Δlog10(CFU/ml) (non-growing UPEC CFT073; E. coli in 1:4 CA-MHB (pH 7.4), 0.25 μM, average killing vs before treatment (8.977)): 0.270 log10(CFU/ml)
- Δlog10(CFU/ml) (non-growing UPEC CFT073; E. coli in 1:4 CA-MHB (pH 7.4), 0.5 μM, average killing vs before treatment (8.977)): 0.232 log10(CFU/ml)
- Δlog10(CFU/ml) (non-growing UPEC CFT073; E. coli in 1:4 CA-MHB (pH 7.4), 1 μM, average killing vs before treatment (8.977)): 0.145 log10(CFU/ml)
- Δlog10(CFU/ml) (non-growing UPEC CFT073; E. coli in 1:4 CA-MHB (pH 7.4), 2.5 μM, average killing vs before treatment (8.977)): 0.654 log10(CFU/ml)
- Δlog10(CFU/ml) (non-growing UPEC CFT073; E. coli in 1:4 CA-MHB (pH 7.4), 5 μM, average killing vs before treatment (8.977)): 1.149 log10(CFU/ml)
- Δlog10(CFU/ml) (non-growing UPEC CFT073; E. coli in 1:4 CA-MHB (pH 7.4), 10 μM, average killing vs before treatment (8.977)): 1.686 log10(CFU/ml)
- Δlog10(CFU/ml) (non-growing UPEC CFT073; E. coli in LPM (pH 5.5), 0.25 μM, average killing vs before treatment (7.350)): 0.339 log10(CFU/ml)
- Δlog10(CFU/ml) (non-growing UPEC CFT073; E. coli in LPM (pH 5.5), 0.5 μM, average killing vs before treatment (7.350)): 0.181 log10(CFU/ml)
- Δlog10(CFU/ml) (non-growing UPEC CFT073; E. coli in LPM (pH 5.5), 1 μM, average killing vs before treatment (7.350)): 0.347 log10(CFU/ml)
- Δlog10(CFU/ml) (non-growing UPEC CFT073; E. coli in LPM (pH 5.5), 2.5 μM, average killing vs before treatment (7.350)): 0.457 log10(CFU/ml)
- Δlog10(CFU/ml) (non-growing UPEC CFT073; E. coli in LPM (pH 5.5), 5 μM, average killing vs before treatment (7.350)): 1.004 log10(CFU/ml)
- Δlog10(CFU/ml) (non-growing UPEC CFT073; E. coli in LPM (pH 5.5), 10 μM, average killing vs before treatment (7.350)): 1.335 log10(CFU/ml)
- Log10(CFU/ml), Replicate #1 (non-growing UPEC CFT073; pH 5.5): 5.301 Log10(CFU/ml) and 5.477 Log10(CFU/ml) and 6.204 Log10(CFU/ml) and 6.279 Log10(CFU/ml) and 6.491 Log10(CFU/ml) and 6.477 Log10(CFU/ml)
- Log10(CFU/ml), Replicate #2 (non-growing UPEC CFT073; pH 5.5): 5.568 Log10(CFU/ml) and 6.114 Log10(CFU/ml) and 6.778 Log10(CFU/ml) (2×) and 6.903 Log10(CFU/ml) and 6.477 Log10(CFU/ml)
- Log10(CFU/ml), Replicate #3 (non-growing UPEC CFT073; pH 5.5): 7.176 Log10(CFU/ml) and 7.447 Log10(CFU/ml) and 7.699 Log10(CFU/ml) and 7.954 Log10(CFU/ml) and 8.114 Log10(CFU/ml) and 8.079 Log10(CFU/ml)
- Log10(CFU/ml), Replicate #1 (non-growing UPEC CFT073; pH 7.4): 7.903 Log10(CFU/ml) and 8.362 Log10(CFU/ml) and 8.903 Log10(CFU/ml) and 9.462 Log10(CFU/ml) and 9.362 Log10(CFU/ml) and 9.114 Log10(CFU/ml)
- Log10(CFU/ml), Replicate #2 (non-growing UPEC CFT073; pH 7.4): 6.556 Log10(CFU/ml) and 7.279 Log10(CFU/ml) and 7.954 Log10(CFU/ml) and 8.778 Log10(CFU/ml) and 8.699 Log10(CFU/ml) and 8.301 Log10(CFU/ml)
- Log10(CFU/ml), Replicate #3 (non-growing UPEC CFT073; pH 7.4): 7.415 Log10(CFU/ml) and 7.845 Log10(CFU/ml) and 8.114 Log10(CFU/ml) and 8.255 Log10(CFU/ml) and 8.176 Log10(CFU/ml)
- OD600 at 8hr, Mean ([2]; 0.1 μM): 0.622
- OD600 at 8hr, Mean ([2]; 0.5 μM): 0.595
- OD600 at 8hr, Mean ([2]; 2.5 μM): 0.351
- OD600 at 8hr, Mean ([2]; 10 μM): 0.129
- pEC50 ([2]; regrowth delay of non-growing bacteria, 1:4 CA-MHB pH 7.4, 24 h treatment, OD600 8 h after dilution, read-out: EC50): 5.59
